Data as given in US20250057865A1, “ANTIVIRAL SUPPLEMENT FORMULATIONS FOR HERPESVIRUS INFECTIONS” (priority 2023, published 2025).

What was measured:
[1] = tested on: HSV-1 R8411; assay: microbe, parasite or virus in culture; assay type: cell-based, herpes simplex virus 1; conditions: for efficacy against HSV-1 (in words): ARPE-19, 24 h post-infection; for EC50: Human alphaherpesvirus 1, ARPE-19, 24 h, 24 h; for SI (CC50/EC50): Table 10, HSV1, buffered medium
Protocol: (§1) Next, cells were infected at a MOI of 0.05 with either HSV-1 R8411 or HSV-2-Luc, both which expresses firefly luciferase, in either standard DMEM medium (10% FBS) or standard DMEM medium (10% FBS) buffered with 3.024 g/L sodium bicarbonate. Treatments were prepared in the different medium conditions and added at the time of infection. All assays were imaged at 24 h post-infection and/or treatment. The compounds tested for this experiment included: Test Composition in unbuffered medium, Test Composition in buffered medium, acyclovir in unbuffered medium and acyclovir in buffered medium. All graphs, EC50, CC50, and CC50/EC50 calculations were performed using GraphPad software based on Lysine equivalent concentrations.
(§2) HSV-1 or HSV-2 infected cells were measured by bioluminescence imagining in the dose-response assay. Each plate contained a set of untreated wells in each media condition (unbuffered or buffered) to be used as baseline. Test composition concentrations ranged from 3.2 μM to 50 mM in a 1:5 dilution series. Acyclovir concentrations ranged from 0.00256 to 40 μM in a 1:5 dilution series.
(§3) Assays were performed as previously described. […] Next, cells were infected at a MOI of approximately 0.05 with either HSV-1 R8411 or HSV-2 MS-Luciferase, both which expresses firefly luciferase, in DMEM (10% FBS) buffered with 3.024 g/L sodium bicarbonate. Antiviral compounds were prepared in the buffered media, added at the time of infection, and remained for the duration of the assay. Both HSV1 and HSV2 cultures were scanned at 24 h post-infection. Each plate contained untreated wells as a baseline for comparison. The solutions evaluated included original Test Composition and various sets of its components, as well as acyclovir (ACV; control). The table below includes a breakdown of all the different component formulations. Graphs were produced, EC50, and CC50 calculations were performed using GraphPad. Concentrations for Test Composition and its components ranged from 3.2 μM to 50 mM in a 1:5 dilution series. Acyclovir concentrations ranged from 0.00256 to 40 μM in a 1:5 dilution series.

[2] = tested on: HSV-2-Luc; assay: microbe, parasite or virus in culture; assay type: cell-based, herpes simplex virus 2; conditions: for efficacy against HSV-2 (in words): ARPE-19, 24 h post-infection; for EC50: Human alphaherpesvirus 2, ARPE-19, 24 h, 24 h; for SI (CC50/EC50): Table 10, HSV2, buffered medium
Protocol: as §1, §2, §3

[3] = in vitro; assay type: cell-based; conditions: human, Table 10 HSV1 half, ARPE-19, buffered medium
Protocol: as §3

[4] = tested on: VZV-ORF57-Luc; assay: microbe, parasite or virus in culture; assay type: cell-based, varicella zoster virus; conditions: for EC50: Human alphaherpesvirus 3, ARPE-19, 72 h, 72 h
Protocol: (§4) VZV- or HCMV-infected cells were measured by bioluminescence imagining in the efficacy or dose-response assay. Assays were performed as previously described, with a few modifications. […] Next, cells were infected at a MOI of approximately 0.05 with either VZV-ORF57-Luc or HCMV-eGFP-fLuc, both which expresses firefly luciferase, in either standard DMEM (10% FBS) or DMEM (10% FBS) buffered with 3.024 g/L sodium bicarbonate.
(§5) Antiviral Test Compositions were prepared in the two media, added at the time of infection, and remained for the duration of the assay. VZV cultures were scanned at 72 h post-infection, and HCMV cultures were scanned at 7 days post-infection. Each plate contained untreated wells in each media condition (unbuffered or buffered) as a baseline. Test Composition in unbuffered medium, Test Composition in buffered medium, cidofovir positive control (CDV; for VZV) or ganciclovir positive control (GCV; for HCMV) in unbuffered medium, and CDV (for VZV) or GCV (for HCMV) in buffered medium. All graphs, EC50, and CC50 calculations were performed using GraphPad. Test Composition concentrations ranged from 3.2 μM to 50 mM in a 1:5 dilution series based on Lysine concentrations. Cidofovir concentrations ranged from 0.00128 to 20 μM in a 1:5 dilution series. Ganciclovir concentrations ranged from 0.0064 to 100 μM in a 1:5 dilution series.

[5] = Cell effect in absence of virus assay, ARPE-19 cells, 72 h, Neutral Red; assay type: cell-based; conditions: human, ARPE-19 cells, ARPE-19, Unbuffered DMEM
[6] = tested on: ARPE-19 cells; assay: as above; assay type: cell-based; conditions: ARPE-19, Buffered DMEM
[7] = tested on: HCMV-eGFP-fLuc; assay: HCMV bioluminescence dose-response assay in HFFs; assay type: cell-based, human cytomegalovirus; conditions: unbuffered and buffered medium
Protocol: as §4, §5

[8] = tested on: human foreskin fibroblasts (HFFs); conditions: Buffered DMEM, 7 d
Protocol: (§6) For the cell effect in absence of virus assay, ARPE-19 cells or HFFs were seeded into 96-well plates and grown for 72 h as described above. Cells were treated with Test Composition in either unbuffered or buffered medium ranging from 1 μM to 100 mM (1:10 dilution). Cidofovir was tested in a range from 0.001 to 100 μM (1:10 dilution). Ganciclovir was tested in a range from 0.002 to 200 μM (1:10 dilution). ARPE-19 cells were treated with Test Composition or Cidofovir for 72 h, then cells were stained with Neutral Red dye and absorbance was measured at 540 nm. HFFs were treated with original Test Composition or Ganciclovir for 7 d, then cells were stained with Neutral Red dye and absorbance was measured at 540 nm.

[9] = in vitro; conditions: human, human foreskin fibroblasts (HFFs)
Protocol: as §6

[10] = in vivo; cited from earlier work
[11] = adults; cited from earlier work

Nc1nc2c(ncn2COCCO)c(=O)[nH]1 [Acyclovir, acyclovir]
efficacy against HSV-1 (in words) [1]: worked | efficacy against HSV-1 (in words) ([1]; listed as acyclovir): effective | EC50 ([1]; HSV-1, ARPE-19, Buffered DMEM (sodium bicarbonate)): 0.156 µM | EC50 ([1]; HSV-1, ARPE-19, Unbuffered DMEM, Lysine equivalent concentration): 0.645 µM | EC50 ([1]; Table 10, HSV1, ARPE-19, buffered medium, curves plotted as L-lysine HCl or acyclovir concentration (uM), FIG. 5): 0.225 µM | SI (CC50/EC50) [1]: 444.44 | efficacy against HSV-2 (in words) [2]: worked | efficacy against HSV-2 (in words) ([2]; listed as acyclovir): effective | EC50 ([2]; HSV-2, ARPE-19, Buffered DMEM): 6.66 µM | EC50 ([2]; HSV-2, ARPE-19, Unbuffered DMEM): 7.89 µM | EC50 ([2]; Table 10, HSV2, ARPE-19, buffered medium, curves plotted as L-lysine HCl or acyclovir concentration (uM), FIG. 6): 33.1 µM | SI (CC50/EC50) [2]: 3.02 | CC50 at 24 h [3]: ≥ 100 µM

Nc1ccn(C[C@@H](CO)OCP(=O)(O)O)c(=O)n1 [Cidofovir, cidofovir]
efficacy against VZV (in words) ([4]; ARPE-19, unbuffered and buffered medium): effective | EC50 ([4]; VZV, ARPE-19, Buffered DMEM): 19 µM | EC50 ([4]; VZV, ARPE-19, Unbuffered DMEM): 1.72 µM | increase of EC50 in buffered medium versus unbuffered medium ([4]; VZV): 10 fold | SI (CC50/EC50) ([4]; VZV, Buffered DMEM): 5.3 | SI (CC50/EC50) ([4]; VZV, Unbuffered DMEM): 58.2 | CC50 at 72 h [5]: > 100 µM | CC50 [6]: > 100 µM

Nc1nc(O)c2ncn(COC(CO)CO)c2n1 [Ganciclovir, ganciclovir]
efficacy against HCMV (in words) [7]: not effective | CC50 [8]: > 200 µM | CC50 at 7 d [9]: > 200 µM

Cl.NCCCC[C@H](N)C(=O)O [Solution 2, L-lysine monohydrochloride]
rank of efficacy among test solutions 1-11 against HSV1 ([1]; ARPE-19, buffered medium): least effective | SI (CC50/EC50) [1]: 5 | rank of efficacy among test solutions 1-11 against HSV2 ([2]; ARPE-19, buffered medium): least effective | SI (CC50/EC50) [2]: 2.5

CC(C)[C@H](N)C(=O)OCCOCn1cnc2c(=O)[nH]c(N)nc21 [Valacyclovir]
fraction eliminated renally [10]: 89%

Cc1ncc(CO)c(CO)c1O [Vitamin B6, Pyridoxine]
intake usually safe [11]: up to 200 mg per day
